Reference: US10065990B2, “Cyclic peptide compound, and preparation method, pharmaceutical composition and use thereof” (HANGZHOU GUANYU BIO-MEDICAL CO., LTD, priority 2013, dated 2018)

Experiments:
[1] = target: T1, HDAC7 (Homo sapiens, UniProt Q8WUI4); assay: HDAC biochemical activity measurement (fluorescent substrate deacetylation);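 note: fluorogenic deacetylation assay using acetyl-lysine substrate at 20 µM, enzyme and compound incubated 30 min at 37 °C, then developer added, fluorescence read at 360/460 nm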; settings: HDAC7; 37° C. 30 minutes
T1 sequence (Q8WUI4 1-952): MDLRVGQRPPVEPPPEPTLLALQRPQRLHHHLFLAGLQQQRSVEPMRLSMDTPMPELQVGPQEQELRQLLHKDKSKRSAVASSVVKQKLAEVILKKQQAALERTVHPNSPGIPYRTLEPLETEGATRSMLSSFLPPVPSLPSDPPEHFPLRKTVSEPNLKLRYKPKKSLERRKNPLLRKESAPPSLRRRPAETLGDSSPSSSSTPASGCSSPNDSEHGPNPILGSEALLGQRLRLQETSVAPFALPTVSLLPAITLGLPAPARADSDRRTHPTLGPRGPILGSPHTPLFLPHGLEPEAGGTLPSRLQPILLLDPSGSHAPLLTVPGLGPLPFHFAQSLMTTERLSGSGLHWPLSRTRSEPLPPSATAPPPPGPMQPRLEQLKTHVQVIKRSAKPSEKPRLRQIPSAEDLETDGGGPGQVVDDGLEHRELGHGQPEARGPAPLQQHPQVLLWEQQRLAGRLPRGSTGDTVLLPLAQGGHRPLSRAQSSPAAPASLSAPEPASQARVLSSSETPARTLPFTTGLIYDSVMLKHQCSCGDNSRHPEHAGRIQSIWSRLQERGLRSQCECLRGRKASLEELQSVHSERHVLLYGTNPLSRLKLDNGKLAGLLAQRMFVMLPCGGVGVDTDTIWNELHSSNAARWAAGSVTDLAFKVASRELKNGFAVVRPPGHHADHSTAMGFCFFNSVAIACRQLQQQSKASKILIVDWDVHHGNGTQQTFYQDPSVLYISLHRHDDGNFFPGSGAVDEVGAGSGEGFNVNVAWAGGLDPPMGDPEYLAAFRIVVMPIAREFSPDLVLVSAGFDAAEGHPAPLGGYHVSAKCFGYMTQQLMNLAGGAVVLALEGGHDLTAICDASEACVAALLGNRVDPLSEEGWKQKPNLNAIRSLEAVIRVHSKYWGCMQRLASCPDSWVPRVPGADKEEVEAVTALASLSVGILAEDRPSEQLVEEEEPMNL

[2] = system: MOLT-4 (human acute lymphoblastic leukemia cells); assay: MTT cancer cell growth inhibition; format: cell-based; settings: Homo sapiens, MOLT-4, 72 h, MOLT-4 cells, MTT, 72 hours incubation; read-out: GI50 Mol
Excerpt: (§1) MTT assay principle is yellow MTT can penetrate membrane into the cell, succinic dehydrogenase of the mitochondria in living cells can make exogenous MTT reduction of insoluble in water of blue-violet acicular formazan for crystallization and deposition in the cell, crystallization can be dissolved dimethyl sulfoxide (DMSO) solution, detected its absorbance at 490 nm/570 nm wavelength by enzyme-linked immunosorbent assay, which can reflect the number of cells.
(§2) Using DMEM+10% FBS culture medium or using 1640+10% FBS culture, respectively.
(§3) a) Cells were seeded in 96-well plates with the inoculation of 1500/well, 190 μl/hole, 37° C., 5% of CO2 incubator overnight;
(§4) b) The next day each well was added 10 μl of different drugs. The final concentration of drug was 10^−5˜10^−10M, three parallel holes; 37° C., 5% CO2 culture incubator for 72 hours incubation;
(§5) c) Per well was added 20 μl 5 mg/ml of MTT, 37° C., 5% CO2 culture incubator for 4 hours incubation;
(§6) d) The supernatant was discarded. Each well was added 100 μl of DMSO and oscillation;
(§7) e) 570 nm readings. Calculate cell viability. GI50 calculation based on the results.

[3] = system: BGC-823 (human gastric cancer cells); assay: MTT cancer cell growth inhibition; format: cell-based; settings: Homo sapiens, BGC-823, 72 h, BGC-823 cells, MTT, 72 hours incubation; read-out: GI50 BG
Excerpt: as §1, §2, §3, §4, §5, §6, §7

[4] = system: U937 (human leukemia cells); assay: MTT cancer cell growth inhibition; format: cell-based; settings: Homo sapiens, U-937, 72 h, U937 cells, MTT, 72 hours incubation; read-out: GI50 U93
Excerpt: as §1, §2, §3, §4, §5, §6, §7

[5] = system: HCC827 (human non-small cell lung cancer cells); assay: MTT cancer cell growth inhibition; format: cell-based; settings: Homo sapiens, HCC827, 72 h, MTT, 72 hours incubation, HCC827 cells; read-out: GI50 HCC827
Excerpt: as §1, §2, §3, §4, §5, §6, §7

[6] = system: lncap (prostate cancer cells); assay: MTT cancer cell growth inhibition; format: cell-based; settings: Homo sapiens, LNCaP, 72 h, lncap cells, MTT, 72 hours incubation; read-out: GI50 lnca
Excerpt: as §1, §2, §3, §4, §5, §6, §7

[7] = system: KBM5-T315I (human chronic myelogenous leukemia); assay: MTT cancer cell growth inhibition; format: cell-based; settings: Homo sapiens, 72 h, MTT, 72 hours incubation, KBM5-T315I cells; read-out: GI50 KBM5-T315I
Excerpt: as §1, §2, §3, §4, §5, §6, §7

[8] = system: MCF-7 (human breast cancer cells); assay: MTT cancer cell growth inhibition; format: cell-based; settings: Homo sapiens, MCF7, 72 h, MCF-7 cells, 72 hours incubation, read-out: GI50 MCF
Excerpt: as §1, §2, §3, §4, §5, §6, §7

[9] = system: A549 (human lung cancer cells); assay: MTT cancer cell growth inhibition; format: cell-based; settings: Homo sapiens, A549, 72 h, A549 cells, MTT, 72 hours incubation; read-out: GI50 A54
Excerpt: as §1, §2, §3, §4, §5, §6, §7

[10] = system: HT1080 (human fibrosarcoma cells); assay: MTT cancer cell growth inhibition; format: cell-based; settings: Homo sapiens, HT-1080, 72 h, HT1080 cells, MTT, 72 hours incubation; read-out: GI50 HT1
Excerpt: as §1, §2, §3, §4, §5, §6, §7

[11] = system: SGC-7901 (human gastric cancer cells); assay: MTT cancer cell growth inhibition; format: cell-based; settings: Homo sapiens, SGC-7901, 72 h, MTT, 72 hours incubation, SGC-7901 cells; read-out: GI50 SGC-7901
Excerpt: as §1, §2, §3, §4, §5, §6, §7

[12] = system: Hela (human cervical cancer cells); assay: MTT cancer cell growth inhibition; format: cell-based; settings: Homo sapiens, HeLa, 72 h, Hela cells, MTT, 72 hours incubation; read-out: GI50 Hela
Excerpt: as §1, §2, §3, §4, §5, §6, §7

[13] = system: PANC-1 (Pac-1, human pancreatic cancer cells); assay: MTT cancer cell growth inhibition; format: cell-based; settings: Homo sapiens, PANC-1, 72 h, PANC-1 cells, MTT, 72 hours incubation; read-out: GI50 PAN
Excerpt: as §1, §2, §3, §4, §5, §6, §7

[14] = system: KBM-5 (human chronic myelogenous leukemia); assay: MTT cancer cell growth inhibition; format: cell-based; settings: Homo sapiens, KBM5, 72 h, MTT, 72 hours incubation, KBM-5 cells; read-out: GI50 KBM-5
Excerpt: as §1, §2, §3, §4, §5, §6, §7

[15] = system: MDA-MB-231 (breast cancer cells); assay: MTT cancer cell growth inhibition; format: cell-based; settings: Homo sapiens, MDA-MB-231, 72 h, read-out: GI50 MDA-MB-231, MTT, 72 hours incubation, MDA-MB-231 cells
Excerpt: as §1, §2, §3, §4, §5, §6, §7

[16] = system: H1975 (non-small cell lung adenocarcinoma); assay: MTT cancer cell growth inhibition; format: cell-based; settings: Homo sapiens, NCI-H1975, 72 h, MTT, 72 hours incubation, H1975 cells; read-out: GI50 H1975
Excerpt: as §1, §2, §3, §4, §5, §6, §7

[17] = system: Bel-7402 (human hepatoma cells); assay: MTT cancer cell growth inhibition; format: cell-based; settings: Homo sapiens, Bel-7402, 72 h, MTT, 72 hours incubation, Bel-7402 cells; read-out: GI50 Bel-7402
Excerpt: as §1, §2, §3, §4, §5, §6, §7

[18] = system: K562 (human leukemia cells); assay: MTT cancer cell growth inhibition; format: cell-based; settings: Homo sapiens, K562, 72 h, MTT, 72 hours incubation, K562 cells; read-out: GI50 K562
Excerpt: as §1, §2, §3, §4, §5, §6, §7

[19] = system: N-87 (human gastric cancer cells); assay: MTT cancer cell growth inhibition; format: cell-based; settings: Homo sapiens, 72 h, MTT, 72 hours incubation, N-87 cells; read-out: GI50 N-87
Excerpt: as §1, §2, §3, §4, §5, §6, §7

[20] = system: DU145 (human prostate cancer cells); assay: MTT cancer cell growth inhibition; format: cell-based; settings: Homo sapiens, DU-145, 72 h, DU145 cells, MTT, 72 hours incubation; read-out: GI50 Du1
Excerpt: as §1, §2, §3, §4, §5, §6, §7

[21] = system: Huh-7 (human hepatoma cells); assay: MTT cancer cell growth inhibition; format: cell-based; settings: Homo sapiens, Huh-7, 72 h, MTT, 72 hours incubation, Huh-7 cells; read-out: GI50 Huh-7
Excerpt: as §1, §2, §3, §4, §5, §6, §7

Compound | IC50 HDAC7 [1] | GI50 [2] | GI50 [3] | GI50 [4] | GI50 [5] | GI50 [6] | GI50 [7] | GI50 [8] | GI50 [9] | GI50 [10] | GI50 [11] | GI50 [12] | GI50 [13] | GI50 [14] | GI50 [15] | GI50 [16] | GI50 [17] | GI50 [18] | GI50 [19] | GI50 [20] | other results
C/C=C1\NC(=O)c2cc(SC)cc(n2)CNC(=O)C[C@@H](/C=C/CCSC(C)=O)OC(=O)[C@@H](C)NC1=O [Compound 221] | no activity | 70 nM | 50 nM | 70 nM | 41 nM | 20 nM | 41 nM | 80 nM | 20 nM | 80 nM | 26 nM | 30 nM | 50 nM | 36 nM | 43 nM | 35 nM | 57 nM | 74 nM | 65 nM | 50 nM | GI50 [21]: 41 nM
C/C=C1\NC(=O)c2ccc(SC)c(n2)CNC(=O)C[C@@H](/C=C/CCSC(C)=O)OC(=O)[C@H](Cc2cccc3ccccc23)NC1=O [Compound 200] | no activity | 40 nM | 80 nM | 50 nM | 45 nM | 80 nM | 34 nM | 30 nM | 20 nM | 40 nM | 58 nM | 30 nM | 70 nM | 28 nM | 46 nM | 59 nM | 26 nM | 107 nM | 39 nM | 60 nM | GI50 [21]: 26 nM
C/C=C1\NC(=O)c2nc(ccc2SC)CNC(=O)C[C@@H](/C=C/CCSC(C)=O)OC(=O)[C@H](CCCCNC(=O)OCC2c3ccccc3-c3ccccc32)NC1=O [Compound 195] | no activity | 20 nM | 20 nM | 50 nM | 79 nM | 90 nM | 43 nM | 30 nM | 90 nM | 30 nM | 14 nM | 60 nM | 30 nM | 26 nM | 91 nM | 38 nM | 54 nM | 81 nM | 42 nM | 50 nM | GI50 [21]: 45 nM
